# Laboratory results from patent US12290521B2, “Methods and materials for identifying and treating BET inhibitor-resistant cancers” (Mayo Foundation for Medical Education and Research, priority 2018, dated 2025).
# Columns and labels:
# [1] = system: C4-2 xenograft tumors; assay: Prostate cancer xenografts in NSG mice; assay type: in vivo; details: SPOP-F133V C4-2 xenografts; JQ1 50 mg/kg i.p. 5 days a week, day 21
# Procedure: 6-week-old NOD-SCID IL-2-receptor gamma null (NSG) mice were generated and randomly divided into different experimental groups as indicated. All mice were housed in standard conditions with a 12-hour light/dark cycle and access to food and water ad libitum. For BRD2/3/4 knockdown studies, C4-2 cells (5×10^6), infected with lentivirus expressing empty vector (EV) or HA-SPOP-F133V mutant in combination with control shRNA or BRD2/3/4-specific shRNA, were mixed with Matrigel (in 100 μL 1×PBS plus 100 μL Matrigel (BD Biosciences)) and injected s.c. into the right flank of mice. After xenografts reached the size of about 100 mm^3, vehicle (10% beta cyclodextrin) or JQ1 (Sigma-Aldrich) at 50 mg/kg body weight was administered by i.p. injection 5 days a week. For studies with tumors treated with JQ1 and AKT inhibitor GDC-0068, C4-2 cells (5×10^6) infected with lentivirus expressing empty vector (EV) or HA-SPOP-F133V mutant were mixed with Matrigel (in 100 μL 1×PBS plus 100 μL Matrigel (BD Biosciences)) and injected s.c. into the right flank of mice. […] Growth in tumor volume was measured in a blinded fashion using digital caliper, and tumor volumes were estimated using the formula (L×W2)/2, where L is length of tumor and W is width. The volumes of tumors were compared, and P values were determined by a two-tailed Student's t test. […]
# [2] = system: DUB3; details: Borbely et al., Oncotarget 2015; cited from earlier work
# [3] = system: SPOP and BRD2/3/4; assay: Western blot, co-IP and in vivo ubiquitination assay in 293T cells; assay type: cell-based, human; details: JQ1 1 μM, 24 hours
# Procedure: To immunoprecipitate the ectopically expressed FLAG-tagged proteins, transfected cells were lysed 24 hours post-transfection in BC100 buffer. The whole-cell lysates were immunoprecipitated with the monoclonal anti-FLAG antibody-conjugated M2 agarose beads (Sigma-Aldrich) at 4° C. overnight. After three washes with lysis buffer, followed by two washes with BC100 buffer, the bound proteins were eluted using FLAG-Peptide (Sigma-Aldrich) prepared in BC100 for 3 hours at 4° C. The eluted protein sample was resolved by SDS-PAGE. To immunoprecipitate the endogenous proteins, cells were lysed with 1× cell lysis buffer (Cell Signaling Technology), and the lysate was centrifuged. The supernatant was precleared with protein A/G beads (Sigma-Aldrich) and incubated with the indicated antibody and protein A/G beads at 4° C. overnight. Beads were washed five times with lysis buffer and resuspended in sample buffer and analyzed by SDS-PAGE.
# Cell lysates or immunoprecipitates were subjected to SDS-PAGE, and proteins were transferred to nitrocellulose membranes (GE Healthcare Sciences). The membranes were blocked in Tris-buffered saline (TBS, pH 7.4) containing 5% non-fat milk and 0.1% Tween-20, washed twice in TBS containing 0.1% Tween-20, and incubated with primary antibody overnight at 4° C., followed by secondary antibody for 1 hour at room temperature. The proteins of interest were visualized using ECL chemiluminescence system (Santa Cruz Biotechnology). Densitometry analysis of protein bands was analyzed on the Gel-Pro Analyzer software.
# For the in vivo ubiquitination assay, C4-2 cells were transfected with plasmids for HA-Ub, FLAG-BRD4, and other indicated proteins. C ells were treated with 20 μM MG132 for 8 hours before being harvested and lysed with lysis buffer (50 mM Tris-HCl, pH 7.5, 150 mM NaCl, 1% NP40, 0.5% sodium deoxycholate, 1× protease inhibitor cocktail (PIC)). The lysate was subjected to co-immunoprecipitation using anti-FLAG-conjugated agarose beads as described in the Co-IP assay.
# [4] = system: BRD4; assay: Western blot of BRD4 protein, ubiquitination and half-life in DU145 cells; assay type: cell-based, human; details: DU145 cells; JQ1, 24 hours
# Procedure: Co-Immunoprecipitation (Co-IP) Cells were harvested and lysed by IP buffer (50 mM Tris-HCl, pH 7.4, 150 mM NaCl, 1% Triton X-100, 1% sodium deoxycholate and 1% protease inhibitor cocktails) on ice for more than 15 minutes. Cell lysate was centrifuged for 15 minutes at 13,000 rpm at 4° C., and the supernatant was incubated with primary antibodies and protein A/G agarose beads (Thermo Fisher Scientific) with rotating at 4° C. overnight. The next day, the pellet was washed at least six times with 1×IP buffer on ice, and then subjected to western blotting analysis. Western Blotting
# Cells were harvested and lysed by IP buffer (50 mM Tris-HCl, pH 7.4, 150 mM NaCl, 1% Triton X-100, 1% sodium deoxycholate and 1% protease inhibitor cocktails) on ice for more than 15 minutes. Cell lysate was centrifuged for 15 minutes at 13,000 rpm at 4° C., and the supernatant was quantified by BCA protein quantification assay. Equal amounts of protein sample were added into 4× sample buffer and boiled for 5 minutes. The sample was subjected to SDS-PAGE analysis and transferred to nitrocellulose membrane. The membrane was blocked by 5% milk for 1 hour at room temperature and incubated with primary antibody at 4° C. overnight. The next day, the membrane was washed three times with 1×TBST and incubated with horseradish peroxidase-conjugated secondary antibodies for 1 hour at room temperature. The protein bands were visualized by SuperSignal West Pico Stable Peroxide Solution (Thermo Fisher Scientific).
structure (smiles),measurement,setting,value
Cc1sc2c(c1C)C(c1ccc(Cl)cc1)=N[C@@H](CC(=O)OC(C)(C)C)c1nnc(C)n1-2 [JQ1],xenograft tumor growth,[1],JQ1-resistance
same,DUB3 mRNA level,[2],rapid upregulation
same,SPOP-BRD2/3/4 protein interaction,[3],diminished
same,SPOP-induced BRD2/3/4 ubiquitination and degradation,[3],partially blocked
same,BRD4 polyubiquitination,[4],markedly inhibited
